24 compounds from patent publication US12509444B2, “Compounds and methods for CD73 modulation and indications therefor” (Plexxikon Inc., priority 2019, dated 2025) can be followed below.

Experiment [1] has as its target T1, Human CD73 (amino acid residues 27-549) (Homo sapiens, UniProt P21589).
T1 construct: Human CD73 (amino acid residues 27-549); His tag (N); made in house; host or cells: E. coli
T1 sequence (P21589 27-549): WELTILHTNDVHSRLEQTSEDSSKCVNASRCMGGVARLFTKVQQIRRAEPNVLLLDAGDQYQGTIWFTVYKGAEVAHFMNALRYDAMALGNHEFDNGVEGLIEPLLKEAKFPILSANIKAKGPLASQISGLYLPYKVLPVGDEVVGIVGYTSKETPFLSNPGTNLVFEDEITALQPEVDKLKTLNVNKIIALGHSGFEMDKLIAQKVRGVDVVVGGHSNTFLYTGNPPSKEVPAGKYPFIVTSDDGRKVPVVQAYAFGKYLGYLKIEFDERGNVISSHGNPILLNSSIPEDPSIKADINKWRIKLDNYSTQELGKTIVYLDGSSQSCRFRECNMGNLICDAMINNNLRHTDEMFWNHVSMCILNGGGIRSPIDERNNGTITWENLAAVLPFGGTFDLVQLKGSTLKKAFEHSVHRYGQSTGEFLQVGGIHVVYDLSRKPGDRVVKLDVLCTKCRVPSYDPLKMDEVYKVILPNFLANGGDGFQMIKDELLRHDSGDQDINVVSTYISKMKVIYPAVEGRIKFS
The experiment can be described thus: CD73 enzymatic assay (luciferase-based indirect assay, CellTiter-Glo). It counts as biochemical. Particulars: 0.4 nM CD73, 150 μM AMP, 1 hour at room temperature. An outline of the steps: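 His-tagged human CD73 (27-549) from E. coli, 0.4 nM, with 150 μM AMP in 50 mM HEPES pH 7.4, 0.01% Tween 20; 1 h at room temperature. AMP remaining read by CellTiter-Glo 2.0 luminescence with 1 μM final ATP after 30 min. IC50 from nonlinear regression of % inhibition.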

The next experiment addresses T2, human CD73 (Homo sapiens, UniProt P21589).
T2 construct: expressed in transfected cells
T2 sequence (P21589 27-549): T1 sequence (P21589 27-549)
Put plainly: Inhibitor activity against CD73 in cell based assay (CD73 expressing CHO-K1 cells). Particulars: CHO-K1 cells expressing human CD73, 150 μM AMP, 4 hours of incubation; read-out: CHO-K1 CELL VARIANT: CD73 IC50. An outline of the steps:
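Stably transfected CHO-K1 cells expressing human CD73 (1×10^4/well) incubated 4 h with compound (8-point 1:3 titration, top 10 μM final, 0.2% DMSO) and 150 μM AMP. Residual AMP in supernatant measured by CellTiter-Glo luminescence with 1 μM ATP after 30 min at room temperature; IC50 by nonlinear regression of percent inhibition vs high/low controls.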

As for `O=C(N[C@H]1CC[C@@H](NS(=O)(=O)c2ccc(F)cc2)CC1)O[C@@H]1CCN(c2cn[nH]c(=O)c2Cl)C1` [P-0185, (R)-1-(5-chloro-6-oxo-1,6-dihydropyridazin-4-yl)pyrrolidin-3-yl ((1s,4S)-4-((4-fluorophenyl)sulfonamido)cyclohexyl)carbamate], the IC50 (in experiment [1]; at human CD73) was 0.001 to 10 µM throughout.
For `O=C(N[C@H]1CC[C@@H](NC(=O)c2ccccc2)CC1)O[C@@H]1CCN(c2cn[nH]c(=O)c2Cl)C1` [P-0186, (R)-1-(5-chloro-6-oxo-1,6-dihydropyridazin-4-yl)pyrrolidin-3-yl ((1s,4S)-4-benzamidocyclohexyl) carbamate], the IC50 (in experiment [1]; at human CD73) was 0.001 to 10 µM each time.
`COC(=O)[C@H]1CC[C@H](NC(=O)O[C@@H]2CCN(c3cn[nH]c(=O)c3Cl)C2)CC1` [P-0187, methyl (1R,4r)-4-(((((R)-1-(5-chloro-6-oxo-1,6-dihydropyridazin-4-yl)pyrrolidin-3-yl)oxy)carbonyl)amino) cyclohexane-1-carboxylate]: the IC50 (in experiment [1]; at human CD73) was 0.001 to 10 µM each time.
For `COC(=O)[C@H]1C[C@H](NC(=O)O[C@@H]2CCN(c3cn[nH]c(=O)c3Cl)C2)C1` [P-0188, methyl (1R,3r)-3-(((((R)-1-(5-chloro-6-oxo-1,6-dihydropyridazin-4-yl)pyrrolidin-3-yl)oxy)carbonyl)amino) cyclobutane-1-carboxylate], the IC50 (in experiment [1]; at human CD73) was 0.001 to 10 µM throughout.
As to `O=C(Nc1ccc(F)cc1)N[C@H]1CC[C@@H](NC(=O)O[C@@H]2CCN(c3cn[nH]c(=O)c3Cl)C2)CC1` [P-0189, (R)-1-(5-chloro-6-oxo-1,6-dihydropyridazin-4-yl)pyrrolidin-3-yl ((1s,4S)-4-(3-(4-fluorophenyl)ureido)cyclohexyl)carbamate], the IC50 (in experiment [1]; on human CD73) was 0.001 to 10 µM each time.
In the case of `O=C(N[C@H]1CC[C@H](C(=O)O)CC1)O[C@@H]1CCN(c2cn[nH]c(=O)c2Cl)C1` [P-0190, (1R,4r)-4-(((((R)-1-(5-chloro-6-oxo-1,6-dihydropyridazin-4-yl)pyrrolidin-3-yl)oxy)carbonyl)amino) cyclohexane-1-carboxylic acid], the IC50 in experiment [1] fell in the range of 0.001 to 10 µM; on human CD73 it was 10 to 100 µM.
Regarding `CCCNC(=O)[C@H]1CC[C@H](NC(=O)O[C@@H]2CCN(c3cn[nH]c(=O)c3Cl)C2)CC1` [P-0191, (R)-1-(5-chloro-6-oxo-1,6-dihydropyridazin-4-yl)pyrrolidin-3-yl ((1r,4R)-4-(propylcarbamoyl)cyclohexyl) carbamate], the IC50 (in experiment [1]; on human CD73) was 0.001 to 10 µM throughout.
As for `O=C(N[C@H]1CC[C@H](C(=O)NC2CC2)CC1)O[C@@H]1CCN(c2cn[nH]c(=O)c2Cl)C1` [P-0192, (R)-1-(5-chloro-6-oxo-1,6-dihydropyridazin-4-yl)pyrrolidin-3-yl ((1r,4R)-4-(cyclopropylcarbamoyl)cyclohexyl)carbamate], the IC50 (in experiment [1]; on human CD73) was 0.001 to 10 µM each time.
In the case of `CCN(C)C(=O)[C@H]1CC[C@H](NC(=O)O[C@@H]2CCN(c3cn[nH]c(=O)c3Cl)C2)CC1` [P-0193, (R)-1-(5-chloro-6-oxo-1,6-dihydropyridazin-4-yl)pyrrolidin-3-yl ((1r,4R)-4-(ethyl(methyl)carbamoyl)cyclohexyl)carbamate], the IC50 (in experiment [1]; at human CD73) was 0.001 to 10 µM in each case.
As to `O=C(N[C@H]1CC[C@H](C(=O)Nc2ccccc2)CC1)O[C@@H]1CCN(c2cn[nH]c(=O)c2Cl)C1` [P-0194, (R)-1-(5-chloro-6-oxo-1,6-dihydropyridazin-4-yl)pyrrolidin-3-yl ((1r,4R)-4-(phenylcarbamoyl)cyclohexyl) carbamate], the IC50 (in experiment [1]; on human CD73) was 0.001 to 10 µM each time.
For the compound `O=C(N[C@H]1CC[C@@H](NC(=O)c2ccc(F)cc2)CC1)O[C@@H]1CCN(c2cn[nH]c(=O)c2Cl)C1` [P-0195, (R)-1-(5-chloro-6-oxo-1,6-dihydropyridazin-4-yl)pyrrolidin-3-yl ((1s,4S)-4-(4-fluorobenzamido)cyclohexyl) carbamate], the IC50 (in experiment [1]; at human CD73) was 0.001 to 10 µM each time.
In the case of `CC(=O)N[C@H]1CC[C@@H](NC(=O)O[C@@H]2CCN(c3cn[nH]c(=O)c3Cl)C2)CC1` [P-0196, (R)-1-(5-chloro-6-oxo-1,6-dihydropyridazin-4-yl)pyrrolidin-3-yl ((1s,4S)-4-acetamidocyclohexyl)carbamate], the half-inhibitory concentration (IC50) (in experiment [1]; at human CD73) was 0.001 to 10 µM throughout.
As for `O=C(NC1CCCCC1)N[C@H]1CC[C@@H](NC(=O)O[C@@H]2CCN(c3cn[nH]c(=O)c3Cl)C2)CC1` [P-0197, (R)-1-(5-chloro-6-oxo-1,6-dihydropyridazin-4-yl)pyrrolidin-3-yl ((1s,4S)-4-(3-cyclohexylureido)cyclohexyl) carbamate], the IC50 (in experiment [1]; at human CD73) was 0.001 to 10 µM in each case.
Turning to `O=C(NC1CC2(C1)CN(C(=O)Nc1ccc(F)cc1)C2)O[C@@H]1CCN(c2cn[nH]c(=O)c2Cl)C1` [P-0198, (R)-1-(5-chloro-6-oxo-1,6-dihydropyridazin-4-yl)pyrrolidin-3-yl (2-((4-fluorophenyl)carbamoyl)-2-azaspiro[3.3]heptan-6-yl)carbamate], the IC50 in experiment [1] was in the range of 0.001 to 10 µM; at human CD73 it was 10 to 100 µM.
For `CCCNC(=O)[C@H]1C[C@H](NC(=O)O[C@@H]2CCN(c3cn[nH]c(=O)c3Cl)C2)C1` [P-0199, (R)-1-(5-chloro-6-oxo-1,6-dihydropyridazin-4-yl)pyrrolidin-3-yl ((1r,3R)-3-(propylcarbamoyl)cyclobutyl) carbamate] the same measures were 0.001 to 10 µM and 10 to 100 µM.
For `O=C(N[C@H]1C[C@H](C(=O)Nc2ccccc2)C1)O[C@@H]1CCN(c2cn[nH]c(=O)c2Cl)C1` [P-0200, (R)-1-(5-chloro-6-oxo-1,6-dihydropyridazin-4-yl)pyrrolidin-3-yl ((1r,3R)-3-(phenylcarbamoyl)cyclobutyl) carbamate] the same measures were 0.001 to 10 µM and 0.001 to 10 µM.
For `Cn1ncc(N2CC[C@@H](OC(=O)N[C@H]3CC[C@H](NS(=O)(=O)c4ccccc4F)CC3)C2)c(Cl)c1=O` [P-0201, (R)-1-(5-chloro-1-methyl-6-oxo-1,6-dihydropyridazin-4-yl)pyrrolidin-3-yl ((1r,4R)-4-((2-fluorophenyl)sulfonamido)cyclohexyl)carbamate] the same measures were 0.001 to 10 µM and 0.001 to 10 µM.
For the compound `Cn1ncc(N2CC[C@@H](OC(=O)NC3CCC(F)(F)CC3)C2)c(Cl)c1=O` [P-0202, (R)-1-(5-chloro-1-methyl-6-oxo-1,6-dihydropyridazin-4-yl)pyrrolidin-3-yl (4,4-difluorocyclohexyl)carbamate], the IC50 (in experiment [1]; at human CD73) was 0.001 to 10 µM in each case.
With `CC(C)(C)C1CCC(NC(=O)O[C@@H]2CCN(c3cn[nH]c(=O)c3Cl)C2)CC1` (stereo partly drawn) [P-0203, (R)-1-(5-chloro-6-oxo-1,6-dihydropyridazin-4-yl)pyrrolidin-3-yl (4-(tert-butyl)cyclohexyl)carbamate], the IC50 (in experiment [1]; on human CD73) was 0.001 to 10 µM each time.
Turning to `O=C(NC1CC2CCC1C2)O[C@@H]1CCN(c2cn[nH]c(=O)c2Cl)C1` (stereo partly drawn) [P-0204, (R)-1-(5-chloro-6-oxo-1,6-dihydropyridazin-4-yl)pyrrolidin-3-yl bicyclo[2.2.1]heptan-2-ylcarbamate], the IC50 (in experiment [1]; on human CD73) was 0.001 to 10 µM throughout.
For the compound `O=C(NC1CCCCCC1)O[C@@H]1CCN(c2cn[nH]c(=O)c2Cl)C1` [P-0205, (R)-1-(5-chloro-6-oxo-1,6-dihydropyridazin-4-yl)pyrrolidin-3-yl cycloheptylcarbamate], the IC50 (in experiment [1]; at human CD73) was 0.001 to 10 µM in each case.
`O=C(NC1Cc2ccccc2C1)O[C@@H]1CCN(c2cn[nH]c(=O)c2Cl)C1` [P-0206, (R)-1-(5-chloro-6-oxo-1,6-dihydropyridazin-4-yl)pyrrolidin-3-yl (2,3-dihydro-1H-inden-2-yl)carbamate]: the IC50 (in experiment [1]; at human CD73) was 0.001 to 10 µM in each case.
For the compound `O=C(NC1CCc2[nH]ncc2C1)O[C@@H]1CCN(c2cn[nH]c(=O)c2Cl)C1` (stereo partly drawn) [P-0207, (R)-1-(5-chloro-6-oxo-1,6-dihydropyridazin-4-yl)pyrrolidin-3-yl (4,5,6,7-tetrahydro-1H-indazol-5-yl)carbamate], the IC50 (in experiment [1]; at human CD73) was 0.001 to 10 µM throughout.
`CN1CC(NC(=O)O[C@@H]2CCN(c3cn[nH]c(=O)c3Cl)C2)CC1=O` (stereo partly drawn) [P-0208, (R)-1-(5-chloro-6-oxo-1,6-dihydropyridazin-4-yl)pyrrolidin-3-yl (1-methyl-5-oxopyrrolidin-3-yl)carbamate]: the IC50 (in experiment [1]; on human CD73) was 0.001 to 10 µM throughout.
